Results published in ChEMBL document CHEMBL3045041, “Synthesis of novel aryl(4-substituted pyridin-3-yl)methyl carbamates and their herbicidal activity” (J Pestic Sci, 2012).

What was measured:
Echinochloa oryzicola [1] = test: Herbicidal activity against Echinochloa oryzicola at 100 g a.i/ha treated at emergence stage measured after 26 days by outdoor concrete pot test; format: functional
Echinochloa oryzicola [2] = test: Herbicidal activity against Echinochloa oryzicola at 200 g a.i/ha treated at emergence stage measured after 26 days by outdoor concrete pot test; format: functional
Oryza sativa [3] = test: Phytotoxicity against Oryza sativa cv. Kinuhikari (rice) planted at 3 cm depth measured after 20 to 25 days; format: organism-based; conditions: in vivo
[4] = tested on: Schoenoplectiella juncoides; test: Herbicidal activity against Schoenoplectiella juncoides under greenhouse condition compound treated at 0.5 leaf stage measured after 14 to 20 days; format: functional
Echinochloa oryzicola [5] = test: Herbicidal activity against Echinochloa oryzicola under greenhouse condition compound treated at 2.5 leaf stage measured after 14 to 20 days; format: functional
Echinochloa oryzicola [6] = test: Herbicidal activity against Echinochloa oryzicola under greenhouse condition compound treated at emergence stage measured after 14 to 20 days; format: functional
Elatine triandra [7] = test: Herbicidal activity against Elatine triandra at 100 g a.i/ha treated at emergence stage measured after 26 days by outdoor concrete pot test; format: functional
Elatine triandra [8] = test: Herbicidal activity against Elatine triandra at 200 g a.i/ha treated at emergence stage measured after 26 days by outdoor concrete pot test; format: functional
Rotala indica [9] = test: Herbicidal activity against Rotala indica at 200 g a.i/ha treated at 2.3-leaf stage measured after 26 days by outdoor concrete pot test; format: functional
Rotala indica [10] = test: Herbicidal activity against Rotala indica at 300 g a.i/ha treated at 2.3-leaf stage measured after 26 days by outdoor concrete pot test; format: functional
Rotala indica [11] = test: Herbicidal activity against Rotala indica at 100 g a.i/ha treated at 1.6-leaf stage measured after 26 days by outdoor concrete pot test; format: functional
Rotala indica [12] = test: Herbicidal activity against Rotala indica at 200 g a.i/ha treated at 1.6-leaf stage measured after 26 days by outdoor concrete pot test; format: functional
Rotala indica [13] = test: Herbicidal activity against Rotala indica at 100 g a.i/ha treated at emergence stage measured after 26 days by outdoor concrete pot test; format: functional
Rotala indica [14] = test: Herbicidal activity against Rotala indica at 200 g a.i/ha treated at emergence stage measured after 26 days by outdoor concrete pot test; format: functional
Lindernia procumbens [15] = test: Herbicidal activity against Lindernia procumbens at 200 g a.i/ha treated at 2.3-leaf stage measured after 26 days by outdoor concrete pot test; format: functional
Lindernia procumbens [16] = test: Herbicidal activity against Lindernia procumbens at 300 g a.i/ha treated at 2.3-leaf stage measured after 26 days by outdoor concrete pot test; format: functional
Lindernia procumbens [17] = test: Herbicidal activity against Lindernia procumbens at 100 g a.i/ha treated at 1.6-leaf stage measured after 26 days by outdoor concrete pot test; format: functional
Lindernia procumbens [18] = test: Herbicidal activity against Lindernia procumbens at 200 g a.i/ha treated at 1.6-leaf stage measured after 26 days by outdoor concrete pot test; format: functional
Lindernia procumbens [19] = test: Herbicidal activity against Lindernia procumbens at 100 g a.i/ha treated at emergence stage measured after 26 days by outdoor concrete pot test; format: functional
Lindernia procumbens [20] = test: Herbicidal activity against Lindernia procumbens at 200 g a.i/ha treated at emergence stage measured after 26 days by outdoor concrete pot test; format: functional
Pontederia vaginalis [21] = test: Herbicidal activity against Monochoria vaginalis at 200 g a.i/ha treated at 2.3-leaf stage measured after 26 days by outdoor concrete pot test; format: functional
Pontederia vaginalis [22] = test: Herbicidal activity against Monochoria vaginalis at 300 g a.i/ha treated at 2.3-leaf stage measured after 26 days by outdoor concrete pot test; format: functional
Pontederia vaginalis [23] = test: Herbicidal activity against Monochoria vaginalis at 100 g a.i/ha treated at 1.6-leaf stage measured after 26 days by outdoor concrete pot test; format: functional
Pontederia vaginalis [24] = test: Herbicidal activity against Monochoria vaginalis at 200 g a.i/ha treated at 1.6-leaf stage measured after 26 days by outdoor concrete pot test; format: functional
Pontederia vaginalis [25] = test: Herbicidal activity against Monochoria vaginalis at 100 g a.i/ha treated at emergence stage measured after 26 days by outdoor concrete pot test; format: functional
Echinochloa oryzicola [26] = test: Herbicidal activity against Echinochloa oryzicola at 300 g a.i/ha treated at 2.3-leaf stage measured after 26 days by outdoor concrete pot test; format: functional
Echinochloa oryzicola [27] = test: Herbicidal activity against Echinochloa oryzicola at 200 g a.i/ha treated at 2.3-leaf stage measured after 26 days by outdoor concrete pot test; format: functional
Echinochloa oryzicola [28] = test: Herbicidal activity against Echinochloa oryzicola at 100 g a.i/ha treated at 1.6-leaf stage measured after 26 days by outdoor concrete pot test; format: functional
Echinochloa oryzicola [29] = test: Herbicidal activity against Echinochloa oryzicola at 200 g a.i/ha treated at 1.6-leaf stage measured after 26 days by outdoor concrete pot test; format: functional
Oryza sativa [30] = test: Phytotoxicity against Oryza sativa cv. Kinuhikari (rice) at 200 g a.i/ha treated at 1.6-leaf stage measured after 26 days by outdoor concrete pot test; format: organism-based; conditions: in vivo, other, 624 h
Oryza sativa [31] = test: Phytotoxicity against Oryza sativa cv. Kinuhikari (rice) at 100 g a.i/ha treated at emergence stage measured after 26 days by outdoor concrete pot test; format: organism-based; conditions: in vivo, other, 624 h
Oryza sativa [32] = test: Phytotoxicity against Oryza sativa cv. Kinuhikari (rice) at 200 g a.i/ha treated at emergence stage measured after 26 days by outdoor concrete pot test; format: organism-based; conditions: in vivo, other, 624 h
Elatine triandra [33] = test: Herbicidal activity against Elatine triandra at 200 g a.i/ha treated at 2.3-leaf stage measured after 26 days by outdoor concrete pot test; format: functional
Elatine triandra [34] = test: Herbicidal activity against Elatine triandra at 300 g a.i/ha treated at 2.3-leaf stage measured after 26 days by outdoor concrete pot test; format: functional
Elatine triandra [35] = test: Herbicidal activity against Elatine triandra at 100 g a.i/ha treated at 1.6-leaf stage measured after 26 days by outdoor concrete pot test; format: functional
Elatine triandra [36] = test: Herbicidal activity against Elatine triandra at 200 g a.i/ha treated at 1.6-leaf stage measured after 26 days by outdoor concrete pot test; format: functional
Pontederia vaginalis [37] = test: Herbicidal activity against Monochoria vaginalis at 200 g a.i/ha treated at emergence stage measured after 26 days by outdoor concrete pot test; format: functional
[38] = tested on: Schoenoplectiella juncoides; test: Herbicidal activity against Schoenoplectiella juncoides at 200 g a.i/ha treated at 2.3-leaf stage measured after 26 days by outdoor concrete pot test; format: functional
[39] = tested on: Schoenoplectiella juncoides; test: Herbicidal activity against Schoenoplectiella juncoides at 300 g a.i/ha treated at 2.3-leaf stage measured after 26 days by outdoor concrete pot test; format: functional
[40] = tested on: Schoenoplectiella juncoides; test: Herbicidal activity against Schoenoplectiella juncoides at 100 g a.i/ha treated at 1.6-leaf stage measured after 26 days by outdoor concrete pot test; format: functional
[41] = tested on: Schoenoplectiella juncoides; test: Herbicidal activity against Schoenoplectiella juncoides at 200 g a.i/ha treated at 1.6-leaf stage measured after 26 days by outdoor concrete pot test; format: functional
[42] = tested on: Schoenoplectiella juncoides; test: Herbicidal activity against Schoenoplectiella juncoides at 100 g a.i/ha treated at emergence stage measured after 26 days by outdoor concrete pot test; format: functional
[43] = tested on: Schoenoplectiella juncoides; test: Herbicidal activity against Schoenoplectiella juncoides at 200 g a.i/ha treated at emergence stage measured after 26 days by outdoor concrete pot test; format: functional
Elatine triandra [44] = test: Herbicidal activity against Elatine triandra compound treated at 1 to 2.2-leaf stage measured after 26 days by outdoor concrete pot test; format: functional
Oryza sativa [45] = test: Phytotoxicity against Oryza sativa cv. Kinuhikari (rice) planted at 3 cm depth measured after 26 days; format: organism-based; conditions: in vivo, 624 h
Rotala indica [46] = test: Herbicidal activity against Rotala indica compound treated at 1 to 2.2-leaf stage measured after 26 days by outdoor concrete pot test; format: functional
Lindernia procumbens [47] = test: Herbicidal activity against Lindernia procumbens compound treated at 1 to 2.2-leaf stage measured after 26 days by outdoor concrete pot test; format: functional
Echinochloa oryzicola [48] = test: Herbicidal activity against Echinochloa oryzicola compound treated at 2.5-leaf stage measured after 26 days by outdoor concrete pot test; format: functional
[49] = tested on: Schoenoplectiella juncoides; test: Herbicidal activity against Schoenoplectiella juncoides compound treated at 0.5-leaf stage measured after 26 days by outdoor concrete pot test; format: functional
Echinochloa oryzicola [50] = test: Herbicidal activity against Echinochloa oryzicola compound treated at emergence stage measured after 26 days by outdoor concrete pot test; format: functional
Oryza sativa [51] = test: Phytotoxicity against Oryza sativa cv. Kinuhikari (rice) at 200 g a.i/ha treated at 2.3-leaf stage measured after 26 days by outdoor concrete pot test; format: organism-based; conditions: in vivo, other, 624 h
Oryza sativa [52] = test: Phytotoxicity against Oryza sativa cv. Kinuhikari (rice) at 300 g a.i/ha treated at 2.3-leaf stage measured after 26 days by outdoor concrete pot test; format: organism-based; conditions: in vivo, other, 624 h
Oryza sativa [53] = test: Phytotoxicity against Oryza sativa cv. Kinuhikari (rice) at 100 g a.i/ha treated at 1.6-leaf stage measured after 26 days by outdoor concrete pot test; format: organism-based; conditions: in vivo, other, 624 h

`CN(C)C(=O)OC(c1cnccc1C(F)(F)F)c1cccc2ccccc12` (racemic) was tested. Which Efficacy (Echinochloa oryzicola [1]) did it give?
Its Efficacy is 100%.

And the Efficacy (Echinochloa oryzicola [2])?
Its Efficacy is 100%.

What about the ED20 (Oryza sativa [3]) of the same molecule?
The ED20 was 2000 gAi/ha.

What about the ED80 [4] of the same molecule?
The ED80 was 250 gAi/ha.

What about the ED80 (Echinochloa oryzicola [5]) of the same molecule?
The ED80 was 125 gAi/ha.

What about the ED80 (Echinochloa oryzicola [6]) of the same molecule?
Its ED80 is 31 gAi/ha.

And the Efficacy (Elatine triandra [7])?
Its Efficacy is 100%.

What about the Efficacy (Elatine triandra [8]) of the same molecule?
Its Efficacy is 100%.

And the Efficacy (Rotala indica [9])?
Its Efficacy is 100%.

What about the Efficacy (Rotala indica [10]) of the same molecule?
Its Efficacy is 100%.

And the Efficacy (Rotala indica [11])?
The Efficacy was 100%.

What about the Efficacy (Rotala indica [12]) of the same molecule?
The Efficacy was 100%.

What about the Efficacy (Rotala indica [13]) of the same molecule?
The Efficacy was 100%.

And the Efficacy (Rotala indica [14])?
Its Efficacy is 100%.

And the Efficacy (Lindernia procumbens [15])?
The Efficacy was 100%.

What about the Efficacy (Lindernia procumbens [16]) of the same molecule?
The Efficacy was 100%.

What about the Efficacy (Lindernia procumbens [17]) of the same molecule?
Its Efficacy is 100%.

What about the Efficacy (Lindernia procumbens [18]) of the same molecule?
The Efficacy was 100%.

And the Efficacy (Lindernia procumbens [19])?
The Efficacy was 100%.

And the Efficacy (Lindernia procumbens [20])?
Its Efficacy is 100%.

What about the Efficacy (Pontederia vaginalis [21]) of the same molecule?
Its Efficacy is 99%.

What about the Efficacy (Pontederia vaginalis [22]) of the same molecule?
Its Efficacy is 100%.

And the Efficacy (Pontederia vaginalis [23])?
Its Efficacy is 89%.

What about the Efficacy (Pontederia vaginalis [24]) of the same molecule?
The Efficacy was 100%.

What about the Efficacy (Pontederia vaginalis [25]) of the same molecule?
Its Efficacy is 100%.

And the Efficacy (Echinochloa oryzicola [26])?
Its Efficacy is 95%.

What about the Efficacy (Echinochloa oryzicola [27]) of the same molecule?
Its Efficacy is 95%.

And the Efficacy (Echinochloa oryzicola [28])?
Its Efficacy is 95%.

What about the Efficacy (Echinochloa oryzicola [29]) of the same molecule?
The Efficacy was 95%.

What about the Efficacy (Oryza sativa [30]) of the same molecule?
Its Efficacy is 0%.

What about the Efficacy (Oryza sativa [31]) of the same molecule?
Its Efficacy is 11%.

What about the Efficacy (Oryza sativa [32]) of the same molecule?
The Efficacy was 16%.

And the Efficacy (Elatine triandra [33])?
The Efficacy was 100%.

What about the Efficacy (Elatine triandra [34]) of the same molecule?
The Efficacy was 100%.

And the Efficacy (Elatine triandra [35])?
The Efficacy was 100%.

What about the Efficacy (Elatine triandra [36]) of the same molecule?
Its Efficacy is 100%.

And the Efficacy (Pontederia vaginalis [37])?
Its Efficacy is 100%.

What about the Efficacy [38] of the same molecule?
The Efficacy was 0%.

And the Efficacy [39]?
Its Efficacy is 0%.

What about the Efficacy [40] of the same molecule?
Its Efficacy is 0%.

What about the Efficacy [41] of the same molecule?
The Efficacy was 0%.

And the Efficacy [42]?
The Efficacy was 0%.

And the Efficacy [43]?
The Efficacy was 0%.

And the ED80 (Elatine triandra [44])?
The ED80 was 100 gAi/ha.

And the ED20 (Oryza sativa [45])?
The ED20 was 2000 gAi/ha.

And the ED80 (Rotala indica [46])?
Its ED80 is 100 gAi/ha.

And the ED80 (Lindernia procumbens [47])?
Its ED80 is 100 gAi/ha.

What about the ED80 (Echinochloa oryzicola [48]) of the same molecule?
Its ED80 is 125 gAi/ha.

And the ED80 [49]?
The ED80 was 250 gAi/ha.

What about the ED80 (Echinochloa oryzicola [50]) of the same molecule?
Its ED80 is 31 gAi/ha.

What about the Efficacy (Oryza sativa [51]) of the same molecule?
The Efficacy was 0%.

And the Efficacy (Oryza sativa [52])?
Its Efficacy is 6%.

What about the Efficacy (Oryza sativa [53]) of the same molecule?
Its Efficacy is 0%.
